Measured values published in paper PMC12316734, “Lipase Activation by Poly(Methyl Methacrylate) in Dispersed Solution: Mechanistic Insights by Fluorescence Spectroscopy” (Applied Biochemistry and Biotechnology, 2025).

Target: T1, Bacillus subtilis lipase A (BSLA WT) (Bacillus subtilis, UniProt P37957)
T1 construct: gene estA
Assay: fluorogenic hydrolysis assay
Format: biochemical
Settings: 500 nM enzyme, 20 °C; W42C purified by cation exchange

## CCCC(=O)Oc1ccc2c(C)cc(=O)oc2c1 [4-methylumbelliferyl butyrate]
  fluorogenic hydrolysis assay: The kinetic effect of PMMA on BSLA WT and W42C was found to be identical
